Measurements taken from patent US10752901B2, “Inhibition of ferrochelatase as an antiangiogenic therapy” (Indiana University Research and Technology Corporation, priority 2015, dated 2020).
Each block holds one compound with its values, some of them ahead of it.

What was measured:
[1] = target: T1, ferrochelatase (Sus scrofa, UniProt F1S1X4); assay: Photoaffinity pull down from porcine brain lysate; format: binding; conditions: competition with excess (1 mM) cremastranone isomer; immunoblot band intensity
T1 construct: from tissue; host or cells: porcine brain lysate (S2 and S3 supernatants)
T1 sequence (F1S1X4 1-433): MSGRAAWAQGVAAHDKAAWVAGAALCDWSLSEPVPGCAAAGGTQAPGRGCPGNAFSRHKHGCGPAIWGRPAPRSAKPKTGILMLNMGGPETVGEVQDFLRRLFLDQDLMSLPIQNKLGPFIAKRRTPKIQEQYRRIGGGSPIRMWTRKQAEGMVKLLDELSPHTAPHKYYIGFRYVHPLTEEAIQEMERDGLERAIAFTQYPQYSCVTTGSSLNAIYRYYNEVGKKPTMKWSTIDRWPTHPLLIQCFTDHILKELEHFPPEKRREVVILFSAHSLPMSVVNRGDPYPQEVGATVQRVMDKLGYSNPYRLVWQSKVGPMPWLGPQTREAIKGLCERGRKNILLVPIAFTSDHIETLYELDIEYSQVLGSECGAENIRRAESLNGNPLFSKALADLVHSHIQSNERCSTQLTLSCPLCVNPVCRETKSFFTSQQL
Experimental: Synthesis and characterization of affinity reagents 2 and 3 are shown in WO2014182695A1, filed May 6, 2014, and incorporated by reference to the extent it is consistent herewith. Compounds 1 and 4 were synthesized as described in Lee et al., Org Biomol Chem 28, p. 28 (2014); Basavarajappa et al., PLoS One 9, e95694 (2014). For pulldowns, Neutravidin agarose beads (1 mL of 50% slurry) were washed three times in buffer A containing 25 mM Tris-HCl pH 7.4, 150 mM NaCl, 2.5 mM sodium pyrophosphate, 1 mM phenylmethylsulfonyl fluoride (PMSF), 0.1 mM sodium orthovanadate, 10 μg/mL aprotinin and 10 μg/mL leupeptin. The beads were then incubated with 100 μM affinity or control reagents 2 or 3 overnight at 4° C. with rotation. […]
The beads were collected by centrifugation at 500×g for 5 minutes, then resuspended in 1 mL of buffer B and irradiated with 365 nm UV light (Mercury bulb H44GS100 from Sylvania in a Black-Ray 100 A long-wave UV lamp) in a 60 mm Petri dish for 30 minutes at 4° C. […] The eluates were then analyzed in 4-20% gradient SDS-PAGE and the protein bands were visualized using silver staining. The protein bands pulled down specifically by photo-affinity reagent were excised from the silver stained SDS-PAGE gel and analyzed by mass spectrometry (IUSM Proteomics Core). […]

[2] = test system: endothelial cells; assay: Anti-proliferative activity of cremastranone; format: cell-based, human; conditions: endothelial versus non-endothelial cells
[3] = target: T2, FECH (Homo sapiens, UniProt P22830); assay: PPIX build-up assay; format: cell-based; conditions: HRECs, 5-ALA induced
T2 construct: host or cells: HRECs (human retinal endothelial cells)
T2 sequence (P22830 55-423): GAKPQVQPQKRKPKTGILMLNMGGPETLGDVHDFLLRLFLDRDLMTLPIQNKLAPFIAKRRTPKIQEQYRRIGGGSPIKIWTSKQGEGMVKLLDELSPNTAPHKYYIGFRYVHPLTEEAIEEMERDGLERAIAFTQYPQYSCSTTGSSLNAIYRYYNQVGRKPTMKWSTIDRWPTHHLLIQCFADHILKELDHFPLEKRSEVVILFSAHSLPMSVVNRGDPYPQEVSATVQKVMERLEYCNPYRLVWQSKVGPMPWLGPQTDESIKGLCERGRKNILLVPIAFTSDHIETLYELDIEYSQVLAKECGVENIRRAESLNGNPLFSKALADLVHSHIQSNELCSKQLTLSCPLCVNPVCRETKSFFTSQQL
Experimental: HRECs were grown in a 6-well plate until confluent. Then, cells were serum starved overnight in EBM-2 medium. Fresh EGM-2 medium containing DMSO or compounds was added to cells, and they were incubated at 37° C. for 1 hour followed by addition of 1 mM 5-ALA to increase flux through the heme biosynthetic pathway. After 3 hours of incubation in the dark at 37° C., the cells were trypsinized and lysed in buffer containing 25 mM HEPES-NaOH pH 7.4, 150 mM NaCl, 1% NP-40, 10% glycerol and 1 mM PMSF. The cell lysates were incubated in the dark at 4° C. for 20 minutes on a shaker and centrifuged at 12000×g for 15 minutes. Supernatants were collected for analysis. In a 384-well black plate, 20 μL of supernatant was mixed with 20 μL of 1:1 solution of 2 M perchloric acid and methanol. After 5 minutes of incubation, fluorescence readings were taken at excitation and emission wavelengths of 407 nm and 610 nm using the Synergy plate reader.

[4] = test system: HRECs; assay: Cell proliferation assay (alamarBlue), HRECs; format: cell-based, human
Experimental: Proliferation of cells was monitored as described in Basavarajappa et al., PLoS One 9 (2014). Briefly, after FECH knockdown 2,500 cells in 100 μL of growth medium were plated in each well of 96-well clear-bottom black plates and incubated for 24 hours. Then, compound/DMSO vehicle (final DMSO concentration of 1%) were added and the plates were incubated for 44 hours in 100 μL media at 37° C. and 5% CO2. Then, 11.1 μL of alamarBlue reagent was added to each well of the plate and 4 hours later fluorescence readings were taken at excitation and emission wavelengths of 560 nm and 590 nm respectively using a Synergy H1 plate reader (BioTek, Winooski, Vt., USA). The concentration ranges of griseofulvin and NMPP used were 0.5 nM-500 μM and 0.1 nM-100 μM respectively.

[5] = test system: choroidal neovascularization; assay: L-CNV model (laser-induced choroidal neovascularization); format: in vivo, mouse; conditions: L-CNV mice
[6] = test system: mouse choroid-sclera; assay: Choroidal sprouting assay; format: cell-based; conditions: ex vivo, 48 hours with compound
Experimental: To assess choroidal sprouting, pieces of choroid-sclera dissected from euthanized mouse eyes were embedded in Matrigel and grown in EGM-2 medium plus antibiotics for 72 hours to allow sprouting to initiate. The indicated concentrations of griseofulvin (in DMSO, final DMSO concentration 1%) were added and growth allowed to proceed for 48 hours. Images were taken and growth quantified by measuring distance from the edge of the choroidal piece to the growth front in 4 directions per sample.

[7] = Oral griseofulvin systemic effects (mouse and liver weights); format: in vivo; conditions: oral feeding
Experimental: Mice were fed griseofulvin for a total of 3 weeks, with chow changed every 2-3 days. Standard mouse chow (5 g/mouse/day) was mixed in water (2.2 mL H2O/gram chow), soaked for 15 minutes, then mashed. Griseofulvin doses were prepared at 0.0% (control), 0.5%, and 1.0% with 0.0 g, 0.5 g, and 1.0 g griseofulvin: 10 mL corn oil: 100 g mouse chow ratio, respectively. […] The corn oil solutions and mouse chow mixture were manually mixed thoroughly for 10 minutes. During treatment, the mice were examined and weighed 3 times/week (FIG. 1A). On Day 8, mice underwent L-CNV as above, and were imaged by OCT at Day 15 and Day 22, at which time they were euthanized. The eyes were enucleated and flatmounts prepared as above. The livers were dissected out and weighed (FIG. 1B).

[8] = antifungal treatment of humans; cited from earlier work
[9] = test system: HRECs; assay: Scratch-wound migration assay; format: cell-based, human
Experimental: The migration of HRECs was monitored as described in Basavarajappa et al., PLoS One 9, e95694 (2014). Briefly, HRECs were grown until confluency in 6-well plates and then serum starved overnight in EBM-2 medium. Then, using a sterile 10 μL tip, a scratch was introduced in each well and fresh EGM-2 medium containing DMSO or different concentrations of compounds was added to the wells. For knockdown experiments, the scratch was introduced 48 hours after transfection and fresh medium was added to the wells. Photographs of the wells were taken at different time points to measure the number of migrated cells into the scratched area.

[10] = test system: HRECs; assay: In vitro Matrigel tube formation assay; format: cell-based, human
Experimental: The ability of HRECs to form tubes in vitro was monitored as described in Basavarajappa et al., J Med Chem 58, pp. 5015-5027 (2015). Briefly, HRECs were treated with the indicated concentrations of compounds or DMSO or siRNAs for 48 hours and then 15,000 HRECs in 100 μL of EGM-2 medium containing siRNAs, DMSO or compounds were added to each well of a 96-well plate that was pre-coated with 50 μL of Matrigel basement membrane. Photographs of each well at different time points were taken to measure the tube formation using the Angiogenesis Analyzer plugin in ImageJ software (v.1.48).

decrease of binding of ferrochelatase to affinity reagent [1]: 87%
Compound: COc1ccc(CC2COc3cc(OC)c(O)c(O)c3C2=O)cc1O (single isomer, unassigned) [cremastranone isomer]

buildup of PPIX [3]: dose-dependent buildup of PPIX
Compound: COc1ccc(CC2COc3cc(O)c(OC)c(O)c3C2=O)cc1O (centres unmarked) [cremastranone]
antiproliferative effects [2]: selective antiproliferative effects on endothelial cells
rescue of antiproliferative effects by excess 5-ALA ([4]; HRECs, addition of 5-aminolevulinic acid): partially rescued

liver weights [7]: increased
mouse weights ([7]; experimental timecourse): did not significantly change
Compound: COC1=CC(=O)C[C@@H](C)[C@]12Oc1c(Cl)c(OC)cc(OC)c1C2=O [griseofulvin]
neovascularization ([5]; feeding 0.5% and 1% in chow): decreased neovascularization
neovascularization ([5]; single intravitreal injection 50 μM, 100 μM): dose-dependent results
formation of microvascular sprouts [6]: inhibited formation of microvascular sprouts
concentration attained in plasma [8]: 1000 to 2000 ng/mL
proliferation of HRECs [4]: dose-dependent antiproliferative effects
concentration of griseofulvin needed to have effects ([4]; HRECs in vitro (proliferation, migration, tube formation)): ~10 µM
migration of HRECs [9]: inhibition of migration
tube formation ability of HRECs [10]: inhibition of tube formation

Compound: N-methyl protoporphyrin [NMPP]
proliferation of HRECs [4]: inhibited
migration of HRECs [9]: inhibited
tube formation ability of HRECs [10]: inhibited
